Key:
[1] = system: neural progenitor cell (NPCs); experiment: Monolayer culture NPC proliferation assay; assay type: cell-based, mouse; details: 3 days culture
Procedure: 24 well glass bottom plates (Mat Tek P24G-1.0-13-F Case, glass bottom 24 well plates) were coated with poly-L-ornithin (Sigma P4957) and Fibronection (Sigma F1141) before use in the assay below.
Cells were plated (10,000 cells per well) in Complete media with GF for 24 hours (500 ul per well). Once cells had been attached they were switched to choline deficient media, other compound media, or appropriate media.
After 24 h, it was ensured that cells had attached to the plate then the medium was carefully removed. 500 μL of compound media plus GF.was added. The cells were cultured for 3 days in appropriate media.
Control and compound media was made with #2 media and contains 29 uM Choline, Low (5 uM) and medium (70 uM) choline media was made with #3 media.
EDU incorporation was measured using Click-iT® EdU Alexa Fluor® 555 Imaging Kit (Life technologies, #c10338).
At the end of day 3 EdU was added to each well at 10 μM for 30 minutes prior to fixation. For fixation and subsequent immunohistochemical analysis, the medium was removed, the cells were rinsed once with 1X PBS for 5 min, and fixed with 4% PFA in 1X PBS for 15 min at 4° C., then the cells were washed twice with 1X PBS for 5 min, left in 1X PBS, wrapped in foil and leave overnight at 4° C., or staining was proceeded with.
PBS was removed and enough AB staining solution (1% Goat
serum, 1xPBS, and 0.1% triton X) added to cover the bottom, the blockwas kept at room temp for 1 hour. The cells were stained for EDU. The cells were Incubated for 30 min at room temp, in the dark. The cells were washed with 1X PBS and stained with Dapi 1:5000 ul for 15 min. The cells were washed once with 1X PBS, then left in PBS at 4° C., or Imaged immediately using a GE Cytell imager (cell viability
application), or LSM 710, Zeiss confocal microscope (with ImageJ software (National Institutes of Health) analysis).

[2] = system: neural progenitor cell (NPCs); experiment: Neurosphere counts in 96-well plates; assay type: cell-based, mouse; details: cells grown for 2 days
Procedure: Generation of neural progenitor cell (NPCs) libraries:
dissociation of E14 mouse neocortex
E14 pup brains were harvested and placed in ice cold DPBS(1X)+10% Pen/Strep, then they were dissected using a dissecting microscope. From each pup, one brain hemisphere was placed in 2 ml of Neurobasal media/10% P/S/10X Hepes and another brain hemisphere was placed in another tube.
The tissue from each tube was aseptically and manually dissociate into single cells, neurobasal complete medium was added and centrifuged at 130G for 5 min. The tissue was then re-suspended in neurobasal complete media with GF and placed in a corning suspension culture dish 100 mm×20 mm (#430591). Cells were passage twice using a 1:3 ratio, after what they were centrifuged (130 g 5 min), resuspended in freezing media (10% DMSO and neurobasal complete media, no GF) and frozen in liquid nitrogen (LN2).
Corning Costar 3474, 96 well plate, Ultra low attachment
3-4 mLs of cells were taken out of the tilted plate and add to a 15 ml conical. Some of the remaining media was used to rinse down the plate. All remaining media was drawn up and put into a 15 ml conical tube, and Spun at 130 G for 5 min. All media was removed. The cells were gently resuspended in 5 mls of warm PBS, spun again. PBS was then removed and the cells were then gently resuspended in 500 μl of Accutase(Corning™ Accutase™ Cell Detachment Solution, #25058Cl). The cells were then Pipetted gently with a 1000 μl tip to break up pellet, and then they were placed in a shaking water bath for 5-10 minutes, after which time they were swirled by hand frequently.
Control and compound media was made with #2 media and contain 29 uM Choline, low (5 uM) and medium (70 uM) choline media was made with #3 media.
Clumps were no bigger than ˜3-5 cells. 5-10 mls of warm media (GF) was added to dilute enzyme. 2 mls of media was added. […]
in AB staining solution for five min. Imaging was carried out using a GE Cytell imager or LSM 710, Zeiss confocal microscope and the diameters of neurospheres with ImageJ software (National Institutes of Health) was analysed.

[3] = system: brain myelination (myelin water fraction); experiment: Cross-sectional correlation of infant formula nutrient content with brain myelination (mcDESPOT MRI myelin water fraction); assay type: in vivo, human; details: formula-fed children up to 5 years of age; brain regions named per nutrient
Procedure: MRI (Magnetic Resonance Imaging): MRI brain scans of infants and children between 0 and 5 years were acquired using a white matter imaging technique. This technique provides a quantitative measure, the Myelin Water Fraction (MWF), which is a surrogate marker of myelin content in the brain. When mapped as a function of time across early childhood, myelination trajectories can be generated.
Infant formula composition: six infant formulas fed to infants participating in a study were analyzed for their composition/level of myelin-relevant nutrients.
Infants included in this study were drawn from a larger longitudinal study of normal brain and behavioral development: the Brown University Assessment of Myelination and Behavior Across Maturation (BAMBAM). To focus on neurotypical development, children with known potential risk factors for learning, neurologic, or psychiatric disorders were specifically excluded during recruitment and enrollment. Thus, children with in utero alcohol or illicit substance exposure, premature (<37 weeks gestation) or multiple birth, fetal ultrasound abnormalities, complicated pregnancy (e.g., preeclampsia), APGAR scores <8, NICU admission, neurological disorder (e.g., head injury, epilepsy), psychiatric or developmental disorders in the infant, parents or siblings (including maternal depression requiring medication) were excluded. Ongoing screenings, such as the MCAT for autism, or CBCL for behavioral problems, were further used to remove enrolled children with clinically concerning behaviors or overt medical conditions (such as autism spectrum disorders).
A combination of retrospective and prospective data were acquired from parents via detailed medical histories and parental interview on the type of infant formula used, percentage of breastfeeding to formula feeding, and length of exclusive breastfeeding. This information was updated at each study visit, which occurred approximately every 6 months for children under 2 years, and yearly for older children. Using this information, children were categorized into one of 2 groups: #1. Exclusively formula-fed; and #2. Exclusively breastfed for at least 90 days (3 months). Children who were fed a combination of breastmilk and formula within 3 months were excluded from our analysis. Infants within the exclusively formula-fed group were further sub-divided based on parental reports of the main infant formula used throughout the first 3 months. Main formula was defined as that given 90% of the time or more (in the case were parents used an alternate brand during vacation, for example).
Using these criteria, 94 exclusively formula-fed infants and young children were selected into group #1. These included 13 children who received formula #2; 28 who received formula #5; 8 who received formula #3; 39 who received formula #4; 5 who received formula #1 and 1 who received formula #6. A sample of 52 exclusively breast-fed infants were also selected and matched to the over formula-fed group with regards to mean age, gestation duration, birth weight, male:female ratio, ethnicity ratio, maternal education, family size, and number of languages spoken in the home (in addition to English).
Each infant was scanned using the mcDESPOT (multicomponent Driven Equilibrium Single Pulse Observation of T1 and T2) white matter imaging technique Deoni et al. (Magn. Reson. Med. 2008, 60:1372-1387), which provides a quantitative measure of the myelin water fraction (MWF)—a measure of myelin content—at each point throughout the brain. All infants were scanned during natural (i.e. non-sedated) sleep using acoustically-muffled mcDESPOT imaging protocols. Total imaging times ranged from 19 minutes for the youngest toddlers to 24 minutes for the older 4 year-old children.

Sphingomyelin
neuronal proliferation, DAPI ([1]; Sphingomyelin high (Dose 3, 1 μm)): 305
neuronal proliferation, DAPI ([1]; Sphingomyelin low (Dose 1, 10 nM)): 280
neuronal proliferation, DAPI ([1]; Sphingomyelin med (Dose 2, 100 nM)): 314
number of neurospheres, Average (Mean) ([2]; Sphingomyelin High (Dose 3, 1 μm)): 219
number of neurospheres, Average (Mean) ([2]; Sphingomyelin Low (Dose 1, 10 nM)): 94
number of neurospheres, Average (Mean) ([2]; Sphingomyelin Med (Dose 2, 100 nM)): 121
association of nutrient content of infant formula with myelination (myelin water fraction) over time in the brain [3]: an association with myelination (myelin water fraction) was observed

Reference: patent US11191293B2, “Nutritional composition and infant formula for promoting myelination of the brain” (NESTEC S.A., priority 2015, dated 2021)
